Results on 32 molecules are retold here after patent US5239083A, “Indole derivatives which inhibit steroid 5α reductase” (Kyowa Hakko Kogyo Co., Ltd., priority 1991, dated 1993).

Some results are limits rather than exact numbers.

One series concerns steroid 5α-reductase. The experiment in a line: Inhibition effects on steroid 5α-reductase activity (rat prostate enzyme, [4-14C]-testosterone). The class given is biochemical, male rats. As to conditions: pH 6.5, 37° C., 20 minutes. The protocol: The measurements of inhibition effects of test compounds on steroid 5α-reductase activity were performed according to the method described by Liang et al. [J. Biol. Chem., 259, 734 (1984)] as follows.
The prostates from male rats were homogenated in three tissue volumes of 20 mM sodium phosphate buffer (pH 6.5; containing 0.32M sucrose and 1 mM dithiothreitol). The homogenate was centrifuged at 140,000 X g for one hour. The precipitate was suspended in the buffer described above and the suspension was centrifuged at 140,000 X g for one hour. The precipitate was resuspended in the buffer described above and the solution (30-50 mg protein/ml) was used as enzyme in following assay.
[4-^14 C]-testosterone (1.5 nmol), NADPH (75 nmol), the enzyme (1 mg protein) and test compound in a total volume of 0.5 ml of 40 mM sodium phosphate buffer [pH 6.5, containing 1 mM dithiothreitol] was incubated at 37° C. After 20 minutes the enzyme activity was stopped by the addition of 2 ml of ethyl acetate. The mixture was then centrifuged at 1,000 g, for 5 minutes. The ethyl acetate layer was transferred to another tube and evaporated to dryness. The steroids were taken up in 50 μl of ethyl acetate and separated by thin layer chromatography (TLC) on silica gel in a developing solvent (ethyl acetate: cyclohexane=1:1). The radioactivity of testosterone and dihydrotestosterone on the TLC plate was measured by a TLC scanner.
In the case of `C/C(=C\C(=O)Nc1ccccc1OCCCC(=O)O)c1ccc2c(ccn2C(c2ccccc2)C(C)C)c1` (stereo not drawn) [Compound 44, 4-{2-[3-[1-[α-(2-methylethyl)benzyl]indol-5-yl]isocrotonoylamino]phenoxy}butyric acid], the “inhibition rate (%), 10^-7 M” value is 78%. On to `C/C(=C\C(=O)Nc1ccccc1OCCCC(=O)O)c1ccc2c(ccn2C(c2ccccc2)c2ccccc2)c1` [Compound 2, 4-{2-[3-(1-benzhydrylindol-5-yl)isocrotonoylamino]phenoxy}butyric acid], for which the “inhibition rate (%), 10^-7 M” value was found to be 95%. Turning to `CC/C(=C\C(=O)Nc1ccccc1OCCCC(=O)O)c1ccc2c(ccn2C(CC(C)C)CC(C)C)c1` [Compound 92, 4-{2-[3-[1-[3-methyl-1-(2-methylpropyl)butyl]indol-5-yl]-cis-2-pentenoylamino]phenoxy}butyric acid], the “inhibition rate (%), 10^-7 M” value is on record as 91%. As to `CC/C(=C\C(=O)Nc1ccccc1OCCCC(=O)O)c1ccc2c(ccn2C(c2ccccc2)c2ccccc2)c1` [Compound 93, 4-{2-[3-(1-benzhydrylindol-5-yl)-cis-2-pentenoylamino]phenoxy}butyric acid], the “inhibition rate (%), 10^-7 M” value came to 94%.

As to `CCCC(C)n1ccc2cc(/C(C)=C/C(=O)Nc3ccccc3OCCCC(=O)O)ccc21` (stereo not drawn) [Compound 16, 4-{2-[3-[1-(1-methylbutyl)indol-5-yl]isocrotonoylamino]phenoxy}butyric acid], the “inhibition rate (%), 10^-7 M” value came out at 88%. Take `CCCCC(CC)n1ccc2cc(/C(C)=C/C(=O)Nc3ccccc3OCCCC(=O)O)ccc21` (stereo not drawn) [Compound 18, 4-{2-[3-[1-(1-ethylpentyl)indol-5-yl]isocrotonoylamino]phenoxy}butyric acid]: the “inhibition rate (%), 10^-7 M” value amounted to 90%. For the molecule `C/C(=C\C(=O)Nc1ccccc1OCCCC(=O)O)c1ccc2c(ccn2C(C)CCCC(C)C)c1` (stereo not drawn) [Compound 76, 4-{2-[3-[1-(1,5-dimethylhexyl)indol-5-6l]isocrotonoylamino]phenoxy}butyric acid], the “inhibition rate (%), 10^-7 M” value is 70%.

With `COc1ccc(C(c2ccc(OC)cc2)n2ccc3cc(/C(C)=C/C(=O)Nc4ccccc4OCCCC(=O)O)ccc32)cc1` [Compound 60, 4-{2-[3-[1-(4,4-dimethoxybenzhydryl)indol-5-yl]isocrotonoylamino]phenoxy}butyric acid], the “inhibition rate (%), 10^-7 M” value is recorded as 87%.

“4-{2-[3-[1-(1-propylbutyl)indol-5-yl]isocrotonoyl amino]phenoxy}butyric acid [Compound 19]”: the “inhibition rate (%), 10^-7 M” value was 94%. `CCCC(CCC)n1ccc2cc(/C(C)=C/C(=O)Nc3ccc(F)cc3OCCCC(=O)O)ccc21` [Compound 67]: the “inhibition rate (%), 10^-7 M” value came out at 98%.

With `C/C(=C\C(=O)Nc1ccccc1OCCCC(=O)O)c1ccc2c(ccn2C(c2ccccc2)c2ccc(F)cc2)c1` (stereo not drawn) [Compound 57, 4-{2-[3-[1-(4-fluorobenzhydryl)indol-5-yl]isocrotonoylamino]phenoxy}butyricacid], the “inhibition rate (%), 10^-7 M” value stood at 92%.

With `C/C(=C\C(=O)Nc1ccccc1OCCCC(=O)O)c1ccc2c(ccn2C(c2ccccc2)c2ccccc2F)c1` (stereo not drawn) [Compound 58, 4-{2-[3-[1-(2-fluorobenzhydryl)indol-5-yl]isocrotonoylamino]phenoxy}butyricacid], the “inhibition rate (%), 10^-7 M” value amounted to 93%. Turning to `CCCC(CCC)n1ccc2cc(/C(=C/C(=O)Nc3ccc(F)cc3OCCCC(=O)O)CC)ccc21` [Compound 89, 4-{2-[3-[1-(1-propylbutyl)indol-5-yl]-cis-2-pentenoylamino]-5-fluorophenoxy}butyric acid], the “inhibition rate (%), 10^-7 M” value was 95%. For the molecule `C/C(=C\C(=O)Nc1ccccc1OCCCC(=O)O)c1ccc2c(ccn2C(CC(C)C)c2ccccc2)c1` (stereo not drawn) [Compound 77, 4-{2-[3-[1-[α-(2-methyl)-propylbenzyl]indol-5-yl]isocrotonoylamino]phenoxy}butyric acid], the “inhibition rate (%), 10^-7 M” value is recorded as 97%.

On to `CCCC(CC)n1ccc2cc(/C(C)=C/C(=O)Nc3ccccc3OCCCC(=O)O)ccc21` (stereo not drawn) [Compound 68, 4-{2-[3-[1-(1-ethylbutyl)indol-5-yl]isocrotonoylamino]phenoxy}butyric acid], for which the “inhibition rate (%), 10^-7 M” value is listed as 92%. For the molecule `C/C(=C\C(=O)Nc1ccccc1OCCCC(=O)O)c1ccc2c(ccn2C(c2ccccc2)c2cccnc2)c1` (stereo not drawn) [Compound 84], the “inhibition rate (%), 10^-7 M” value was 66%. As for `CCC(c1ccccc1)n1ccc2cc(/C(C)=C/C(=O)Nc3ccccc3OCCCC(=O)O)ccc21` (stereo not drawn) [Compound 40, 4-{2-[3-[1-(α-ethylbenzyl)indol-5-yl]isocrotonoylamino]phenoxy}butyric acid], the “inhibition rate (%), 10^-7 M” value stood at 78%. `CCCC(CCC)n1ccc2cc(/C(=C/C(=O)Nc3ccccc3OCCCC(=O)O)CC)ccc21` [Compound 88, 4-{2-[3-[1-(1-propylbutyl)indol-5-yl]-cis-2-pentenoylamino]phenoxy}butyric acid]: the “inhibition rate (%), 10^-7 M” value is on record as 95%. Same read-out and setting: next, `C/C(=C\C(=O)Nc1ccccc1OCCCC(=O)O)c1ccc2c(ccn2C(c2ccc(F)cc2)c2ccc(F)cc2)c1` [Compound 59, 4-{2-[3-[1-(4,4'-difluorobenzhydryl)indol-5-yl]isocrotonoylamino]phenoxy}butyric acid]: 92%. Regarding `CCCC(c1ccccc1C)n1ccc2cc(/C(C)=C/C(=O)Nc3ccccc3OCCCC(=O)O)ccc21` (stereo not drawn) [Compound 78, 4-{2-[3-[1-(2-methyl-α-propylbenzyl)indol-5-yl]isocrotonoylamino]phenoxy}butyric acid], the “inhibition rate (%), 10^-7 M” value is on record as 94%. With `CC/C(=C\C(=O)Nc1ccccc1OCCCC(=O)O)c1ccc2c(ccn2C(c2ccc(F)cc2)c2ccc(F)cc2)c1` [Compound 94, 4-{2-[3-[1-(4,4'-difluorobenzhydryl)indol-5-yl]-cis-2-pentenoylaminmo]phenoxy}butyric acid], the “inhibition rate (%), 10^-7 M” value worked out at 97%. On to `C/C(=C\C(=O)Nc1ccccc1OCCCC(=O)O)c1ccc2c(ccn2C(c2ccccc2)c2ccc(C(F)(F)F)cc2)c1` (stereo not drawn) [Compound 83], for which the “inhibition rate (%), 10^-7 M” value came to 90%. Same read-out and setting: to `CCCCC(c1ccccc1C)n1ccc2cc(/C(C)=C/C(=O)Nc3ccccc3OCCCC(=O)O)ccc21` (stereo not drawn) [Compound 79, 4-{2-[3-[1-(α-butyl-2-methylbenzyl)indol-5-yl]isocrotonoylamino]phenoxy}butyric acid] belongs 90%; to `C/C(=C\C(=O)Nc1ccc(F)cc1OCCCC(=O)O)c1ccc2c(ccn2C(c2ccccc2)c2ccccc2)c1` [Compound 48, 4-{2-[3-(1-benzhydrylindol-5-yl)isocrotonoylamino]-5-fluorophenoxy}butyric acid], 93%; to `CCCCC(CCC)n1ccc2cc(/C(=C/C(=O)Nc3ccccc3OCCCC(=O)O)CC)ccc21` (stereo not drawn) [Compound 90, 4-{2-[3-[1-(1-propylpentyl)indol-5-yl]-cis-2-pentenoylamino]phenoxy}butyricacid], 79%. The same measure, in the same setting: next, `C/C(=C\C(=O)Nc1ccccc1OCCCC(=O)O)c1ccc2c(ccn2C(c2ccccc2)c2ccccn2)c1` (stereo not drawn) [Compound 63, 4-{2-[3-[1-[phenyl-(2-pyridyl)methyl]indol-5-yl]isocrotonoylamino]phenoxy}butyric acid]: 72%. As for `CCCC(C)C(C)n1ccc2cc(/C(C)=C/C(=O)Nc3ccccc3OCCCC(=O)O)ccc21` (stereo not drawn) [Compound 22, 4-{2-[3-[1-(1,2-dimethylpentyl)indol-5-yl]isocrotonoylamino]phenoxy}butyric acid], the “inhibition rate (%), 10^-7 M” value was determined as 70%.

As to `C/C(=C\C(=O)Nc1ccccc1OCCCC(=O)O)c1ccc2c(ccn2C(C)c2ccccc2)c1` (stereo not drawn) [Compound 38, 4-{2-[3-[1-(α-methylbenzyl)indol-5-yl]isocrotonoylamino]phenoxy}butyric acid], the “inhibition rate (%), 10^-7 M” value was found to be 78%.

`CCCCC(CCC)n1ccc2cc(/C(=C/C(=O)Nc3ccc(F)cc3OCCCC(=O)O)CC)ccc21` (stereo not drawn) [Compound 91, 4-{2-[3-[1-(1-propylpentyl)indol-5-yl]-cis-2-pentenoylamino]-5-fluorophenoxy}butyric acid]: the “inhibition rate (%), 10^-7 M” value came out at 98%.

For the next series, the system named is male dd mice. Nature of the series: Acute Toxicity Test (oral, mice). The class given is in vivo. As to conditions: oral 300 mg/kg, mortality observed seven days after administration. As for the experimental part: Test compounds (300 mg/kg) were orally administered to male dd mice weighing 20±1 g (each group consists of three animals). Minimum lethal dose (MLD) was determined by observing mortality seven days after the administration.
With `C/C(=C\C(=O)Nc1ccccc1OCCCC(=O)O)c1ccc2c(ccn2C(c2ccccc2)C(C)C)c1` (stereo not drawn) [Compound 44, 4-{2-[3-[1-[α-(2-methylethyl)benzyl]indol-5-yl]isocrotonoylamino]phenoxy}butyric acid], the “Acute toxicity (MLD), minimum lethal dose” value (from here on “Acute toxicity (MLD)”) was above 300 mg/kg.

Regarding `C/C(=C\C(=O)Nc1ccccc1OCCCC(=O)O)c1ccc2c(ccn2C(c2ccccc2)c2ccccc2)c1` [Compound 2, 4-{2-[3-(1-benzhydrylindol-5-yl)isocrotonoylamino]phenoxy}butyric acid], the “Acute toxicity (MLD)” value is above 300 mg/kg. `CCCC(C)n1ccc2cc(/C(C)=C/C(=O)Nc3ccccc3OCCCC(=O)O)ccc21` (stereo not drawn) [Compound 16, 4-{2-[3-[1-(1-methylbutyl)indol-5-yl]isocrotonoylamino]phenoxy}butyric acid]: the “Acute toxicity (MLD)” value is recorded as above 300 mg/kg. For the molecule `CCCCC(CC)n1ccc2cc(/C(C)=C/C(=O)Nc3ccccc3OCCCC(=O)O)ccc21` (stereo not drawn) [Compound 18, 4-{2-[3-[1-(1-ethylpentyl)indol-5-yl]isocrotonoylamino]phenoxy}butyric acid], the “Acute toxicity (MLD)” value was above 300 mg/kg. Take `CCCCC(C)n1ccc2cc(/C(C)=C/C(=O)Nc3ccccc3OCCCC(=O)O)ccc21` (stereo not drawn) [Compound 17, 4-{2-[3-[1-(1-methylpentyl)indol-5-yl]isocrotonoylamino]phenoxy}butyrate]: the “Acute toxicity (MLD)” value was above 300 mg/kg.

On to `CCCCCCn1ccc2cc(/C(C)=C/C(=O)Nc3ccccc3OCCCC(=O)O)ccc21` [Compound 7, 4-{2-[3-(1-hexylindol-5-yl)isocrotonoylamino]phenoxy}butyric acid], for which the “Acute toxicity (MLD)” value is given as above 300 mg/kg. Take `CCC(C)n1ccc2cc(/C(C)=C/C(=O)Nc3ccccc3OCCCC(=O)O)ccc21` (stereo not drawn) [Compound 15, 4-{2-[3-[1-(1-methylpropyl)indol-5-yl]isocrotonoylamino]phenoxy}butyric acid]: the “Acute toxicity (MLD)” value is given as above 300 mg/kg.
